Measurements: publication PMC8286817, “Identifying SARS-CoV-2 antiviral compounds by screening for small molecule inhibitors of Nsp14 RNA cap methyltransferase” (Biochemical Journal, 2021)
Where a name gives a salt, the structure may show the parent alone. Peptide text beside a SMILES is read from it. * marks the point of attachment. Cbz = O=C(OCc1ccccc1)*

target: T1, SARS-CoV-2 nsp14 guanine-N7 methyltransferase (Severe acute respiratory syndrome coronavirus 2, UniProt P0DTD1); test: biochemical; type: biochemical; details: not given

Molecule	IC50 [µM]	Inhibition of nsp14 activity (HTRF signal)
Nc1nc(OCc2cc(Br)cs2)c2[nH]cnc2n1 [Lomeguatrib]	59.8	
O=C(CCCN1CCC(O)(c2cccc(C(F)(F)F)c2)CC1)c1ccc(F)cc1 [Trifluperidol]	12.9	
Nc1ncnc2c1ncn2[C@@H]1O[C@H](C[C@@H](N)CC[C@H](N)C(=O)O)[C@@H](O)[C@H]1O [sinefungin]		inhibited nsp14 activity in a dose-dependent manner

same assay, conditions: read-out: Km (Michaelis constant) of substrate for nsp14

Molecule	Km [µM]
Nc1nc2c(ncn2[C@@H]2O[C@H](COP(=O)(O)OP(=O)(O)OP(=O)(O)O)[C@@H](O)[C@H]2O)c(=O)[nH]1 [GTP]	301 ± 110
Nc1nc2c(ncn2[C@@H]2O[C@H](COP(=O)(O)OP(=O)(O)OP(=O)(O)OC[C@H]3O[C@@H](n4cnc5c(N)ncnc54)[C@H](O)[C@@H]3O)[C@@H](O)[C@H]2O)c(=O)[nH]1 [GpppA]	114 ± 21

same assay, conditions: read-out: Normalised HTRF50 (inhibition of nsp14 methyltransferase activity)

Molecule	IC50 [µM]
Inauhzin	23

target: T1, SARS-CoV-2 nsp14 guanine-N7 methyltransferase; test: not given; type: biochemical; details: not given

Molecule	Z-Score in primary screen
CC(N)c1cccc(Cl)c1Cl.Cl (racemic) [(±)-2,3-Dichloro-alpha-methylbenzylamine hydrochloride]	3.186
C[C@@H]1O[C@H](C[N+](C)(C)C)C[C@H]1O.[Cl-] (racemic) [(±)-Muscarine chloride]	3.736
CCCCC[C@H](O)/C=C/C=C\C/C=C\C=C\[C@@H](O)CCCC(=O)O [5(S),15(S)-DIHETE]	3.436
Br.NC1CCc2cc(O)c(O)cc2C1 (stereo not shown) [6,7-ADTN hydrobromide]	3.690
CCC(Sc1nnc2c(n1)[nH]c1ccccc12)C(=O)N1c2ccccc2Sc2ccccc21 (stereo not shown) [10-[2-(5H-[1,2,4]triazino[5,6-b]indol-3-ylsulfanyl)butanoyl]-10H-phenothiazine]	5.999
C1=C2CCCN[C@H]2[C@@H]2C[C@H]1[C@H]1CCCCN1C2 [Aloperine]	6.366
C[C@@H]1CC[C@H]2[C@@H](C)C(=O)O[C@@H]3O[C@@]4(C)CC[C@@H]1[C@]32OO4 [Artemisisin]	2.850
CCCCOc1ccc(CC(=O)NO)cc1 [Bufexamac]	5.383
CCCCNc1cc(C(=O)O)cc(S(N)(=O)=O)c1Oc1ccccc1 [Bumetanide]	3.246
CCCCN1CCCCC1C(=O)Nc1c(C)cccc1C (stereo not shown) [Bupivacaine]	3.673
C[C@H](N)C(=O)N1C[C@H](CCCB(O)O)[C@](N)(C(=O)O)C1 [CB-1158 (dihydrochloride)]	4.540
CC(C[N+](C)(C)C)OC(N)=O (stereo not drawn) [Carbamyl-beta-methylcholine]	3.385
Cc1c(C(=O)O)c(O)cc2c1C(=O)c1c(O)c([C@@H]3O[C@H](CO)[C@@H](O)[C@H](O)[C@H]3O)c(O)c(O)c1C2=O [Carminic acid]	3.060
CCn1nc(C(=O)O)c(=O)c2cc3c(cc21)OCO3 [Cinoxacin]	3.126
c1ccc(CNc2nc(NCc3ccccc3)c3ccccc3n2)cc1 [DBeQ]	4.776
c1ccc2c(c1)N=C(N1CCNCC1)c1ccccc1N2 [DREADD agonist 21]	3.333
CNCCCN1c2ccccc2CCc2ccccc21 [Desipramine hydrochloride]	4.460
COc1ccc2c(c1)[C@]13CCCC[C@@H]1[C@H](C2)N(C)CC3 [Dextromethorphan]	3.036
O=c1c2ccccc2[se]n1-c1ccccc1 [Ebselen]	5.010
CCC1(C)CC(=O)NC1=O (stereo not shown) [Ethosuximide]	3.595
CC(Cc1ccc(O)cc1)NCC(O)c1cc(O)cc(O)c1 (stereo not shown) [Fenoterol hydrobromide]	3.275
CC(C)C(=O)Nc1ccc([N+](=O)[O-])c(C(F)(F)F)c1 [Flutamide]	3.970
C[C@]12CCC(=O)C=C1CC[C@@H]1[C@@H]2[C@@H](O)C[C@@]2(C)[C@H]1CC[C@]2(O)C(=O)CO [Hydrocortisone]	4.062
COc1cc2c(cc1OC)CC(=O)N(CCCN(C)C[C@H]1Cc3cc(OC)c(OC)cc31)CC2 [Ivabradine]	2.786
CCN1C[C@]2(C)CC[C@H](O)[C@]34C1[C@@H](C[C@H]23)[C@@]1(O)C[C@H](OC)[C@H]2C[C@@H]4[C@@H]1[C@H]2O [Karakoline]	3.794
Cl.Cl.Cl.Ic1ccc(N2CCN(Cc3c[nH]c4ncccc34)CC2)cc1 [L-750,667 trihydrochloride]	3.788
Nc1nc(OCc2cc(Br)cs2)c2[nH]cnc2n1 [Lomeguatrib]	2.697
CC(C)[C@H](NC(=O)OCc1ccccc1)C(=O)N[C@H](C=O)Cc1ccccc1 [MDL 28170] (Cbz-Val-Phe-aldehyde)	3.310

Molecule	Z-Score in primary screen
CNC[C@H](O)[C@@H](O)[C@H](O)[C@H](O)CO [Meglumine]	3.529
CC1(C)CNc2cc(NC(=O)c3cccnc3NCc3ccncc3)ccc21 [Motesanib]	3.875
O=c1c(O)c(-c2cc(O)c(O)c(O)c2)oc2cc(O)cc(O)c12 [Myricetin]	6.539
CC(COc1ccc(/C=C/c2ccccc2)cc1)[N+](C)(C)C.[I-] (stereo not drawn) [N,N,N-trimethyl-1-(4-trans-stilbenoxy)-2-propylammonium iodide]	3.028
CNCCc1ccc(O)c(O)c1.Cl [N-Methyldopamine hydrochloride]	3.906
COc1ccc(C2=N[C@H](c3ccc(Cl)cc3)[C@H](c3ccc(Cl)cc3)N2C(=O)N2CCNC(=O)C2)c(OC(C)C)c1 [Nutlin (3b)]	4.552
O=C(O)CCCCCCC(=O)O [Octanedioic acid]	3.256
N#Cc1ccc(N2N=C3c4ccc(C(=O)O)cc4CC[C@@H]3[C@@H]2C2CCCC2)cc1Cl [PF-03882845]	5.080
CCCN1C[C@H](CSC)C[C@@H]2c3cccc4[nH]cc(c34)C[C@H]21 [Pergolide methanesulfonate]	3.690
O=C1NC(=O)C(c2ccccc2)(c2ccccc2)N1 [Phenytoin sodium]	3.651
CCCCCCCCCCCCCC(=O)O[C@@H]1[C@@H](C)[C@@]2(O)[C@@H](C=C(CO)C[C@]3(O)C(=O)C(C)=C[C@@H]23)[C@@H]2C(C)(C)[C@]12OC(C)=O [Phorbol 12-myristate 13-acetate]	7.036
CN1CCc2cc(Cl)c(O)cc2[C@@H](c2ccccc2)C1.Cl [R(+)-SCH-23390 hydrochloride]	3.847
COc1ccc(CCNC[C@H](O)c2ccc(O)cc2)cc1OC [R(-)-Denopamine]	5.027
Cc1cncc(CN2CCC(=C3c4ccc(Cl)cc4CCc4cccnc43)CC2)c1.O=C(O)/C=C/C(=O)O [Rupatadine Fumarate]	3.745
C[n+]1ccccc1CC(=O)c1ccc(Br)cc1.[I-] [S 24795]	3.557
Nc1ncnc2c1ncn2C1CCCO1 (stereo not shown) [SQ 22536]	3.378
Cl.NC1CCN(c2cccc(Cl)n2)CC1 [SR 57227A]	4.099
NC(=O)C(=O)O [Sodium Oxamate]	3.379
CCN(CC)CC.Nc1ncnc2c1ncn2[C@@H]1O[C@@H]2COP(O)(=S)O[C@H]2[C@H]1O (stereo partly shown) [Sp-cAMPS triethylamine]	3.048
C[N+]1(C)CCC[C@H]1C(=O)[O-].Cl [Stachydine hydrochloride]	2.622
O=C(CCCN1CCC(O)(c2cccc(C(F)(F)F)c2)CC1)c1ccc(F)cc1 [Trifluperidol]	5.671
CC(C)(C)c1cc(C=C(C#N)C#N)cc(C(C)(C)C)c1O [Tyrphostin A9]	3.261
Brc1c(NC2=NCCN2)ccc2nccnc12 [UK 14,304]	3.074
NC(N)=NCc1cccc(I)c1.NC(N)=NCc1cccc(I)c1.O=S(=O)(O)O [m-Iodobenzylguanidine hemisulfate]	4.530
Nc1ccc(C(=O)O)cc1 [p-Aminobenzoic acid]	2.479
Bioymifi	3.204
Inauhzin	3.833
